Earlier results in patent publication US8354566B2, “Lubricating oil additive and lubricating oil composition containing same” (Chevron Oronite Company LLC, priority 2010, dated 2013).

System: estrogen-inducible strain of yeast
Settings: compared among alkylphenols and with 17β-estradiol

For `CC(C)(C)CC(C)(C)c1ccc(O)cc1` [4-tert-octylphenol, 4-(1,1,3,3-Tetramethyl-butyl)-phenol], the estrogenic activity is listed as “highest activity”.
